Earlier results in PMC3519477, “Structures of the Human Poly (ADP-Ribose) Glycohydrolase Catalytic Domain Confirm Catalytic Mechanism and Explain Inhibition by ADP-HPD Derivatives” (PLoS ONE, 2012).

Key:
wild-type bPARG = biological target: wild-type bPARG; set-up: method as in PMID 15658938; details: SPR with immobilized 8-AH-ADP-HPD; cited from earlier work
bPARG Glu728Asn mutant = details: cited from earlier work
bPARG Asp738Asn mutant = details: ref supplemental 2 (Patel et al., 2005); cited from earlier work
bPARG Glu708Asn mutant = details: ref supplemental 2 (Patel et al., 2005); cited from earlier work
bPARG Tyr796Trp mutant = system: bPARG Tyr796Trp mutant; set-up: method as in supplemental 6 (Koh et al., 2003); details: ref supplemental 6 (Koh et al., 2003); cited from earlier work
bPARG Glu757Asn mutant = system: bPARG Glu757Asn mutant; set-up: method as in supplemental 2 (Patel et al., 2005); details: ref supplemental 2 (Patel et al., 2005); cited from earlier work
bPARG Glu756Asn mutant = system: bPARG Glu756Asn mutant; set-up: method as in supplemental 2 (Patel et al., 2005); details: ref supplemental 2 (Patel et al., 2005); cited from earlier work

Question: What does the source list for 8-aminohexylaminoADP-HPD [8-AH-ADP-HPD]?
Answer: Kd (wild-type bPARG): 8.2 nM; Kd (bPARG Glu728Asn mutant; bPARG Glu728Asn (E727N in hPARG), SPR with immobilized 8-AH-ADP-HPD): 3.2 nM; increase in affinity versus wild-type (bPARG Glu728Asn mutant; bPARG Glu728Asn, ref supplemental 2 (Patel et al., 2005)): 18% wild-type specific activity; 2.5-fold increase in affinity for 8-AH-ADP-HPD; decrease in affinity versus wild-type (bPARG Asp738Asn mutant): No detectable activity; 1.4-fold decrease in affinity for 8-AH-ADP-HPD; increase in affinity versus wild-type (bPARG Glu708Asn mutant): No effect on catalytic activity; 2.5-fold increase in affinity for 8-AH-ADP-HPD; effect of mutation on binding (bPARG Tyr796Trp mutant): Limited effect on catalytic activity and 8-AH-ADP-HPD binding; effect of mutation on affinity (bPARG Glu757Asn mutant): No detectable activity; no effect on 8-AH-ADP-HPD affinity; increase in affinity versus wild-type (bPARG Glu756Asn mutant): No detectable activity; 8-fold increase in 8-AH-ADP-HPD affinity
